Experiments:
IL-1 induction of PGE-2 = assay: IL-1 induced PGE-2 in human skin fibroblasts (ELISA); type: cell-based; conditions: for IL-1 induction of PGE-2 blocked: Example 2 dose-response (FIG. 3); for inhibition at 100 µM: Example 3 (FIG. 4A); for inhibition at 50 µM: Example 3 (FIG. 4A/4B)
Protocol: (§1) For this experiment, human skin fibroblasts were seeded into 12 well culture dishes, at a density of 80,000 cells/well in tissue culture medium and left overnight to attach to the dish. The next day, medium was removed and replaced with fresh medium containing either 1% ethanol as a diluent control, IL-1 at a concentration of 500 picograms/ml, or IL-1 plus 4-EB at either 250 μM or 500 μM. Cells were incubated for an additional 24 hours and at this time, the medium was removed and assayed by ELISA for the presence of PGE-2 the culture medium.
Subsequent studies were carried out to determine the dose-response of human skin fibroblasts to 4-EB. […] The results of the study are provided graphically in FIG. 3.
as §1, with “culture dishes” for “culture dishes,”, “plus one of the compounds under investigation” for “plus 4-EB”, “at a concentration of 1, 10, 50” for “at either 250 μM”, “or 100” for “or 500”, “PGE-2 in” for “PGE-2”

[1] = Franz cell percutaneous absorption analysis; type: in vitro ADME, human; conditions: from 1.0% 4-EB lotion; 24 hour period
Protocol: This lotion was then tested by Franz cell percutaneous absorption analysis to determine how much 4-EB could penetrate human skin over a 24 hour period. The lotion formulation above provided a flux rate of 4-EB through human skin of 30-50 micrograms/hour.

[2] = system: TPA-induced PGE2 expression in keratinocytes; assay: TPA induced PGE-2 in human skin keratinocytes (ELISA); type: cell-based; conditions: Keratinocyte, Example 4 (FIG. 5), TPA 32 nM, read-out: percent inhibition of TPA induced PGE-2
Protocol: as §1, with “culture dishes” for “culture dishes,”, “plus one of the compounds under investigation” for “plus 4-EB”, “at a concentration of 1, 10, 50” for “at either 250 μM”, “or 100” for “or 500”, “PGE-2 in” for “PGE-2”
Similar in vitro studies as those described in Example 3 were run using human skin keratinocytes. The experimental set up was the same as described for Example 3 but replacing IL-1 with tetradecanoyl phorbol acetate (TPA) at a concentration of 32 nM as the agonist. The compounds tested were 2-ethoxybenzaldehyde (2-EB) and 3-ethoxybenzaldehyde (3-EB) and 4-ethoxybenzaldehyde (4-EB) in concentrations of either 10, 50, or 100 μM.

[3] = Homo sapiens, Skin fibroblast, 100 μM, IL-1 500 picograms/ml, 24 hours, read-out: Percent inhibition of IL-1 induced PGE-2
[4] = Homo sapiens, Skin fibroblast, 50 μM, IL-1 500 picograms/ml, 24 hours, read-out: Percent inhibition of IL-1 induced PGE-2

SMILES | inhibition of the IL-1 induction of PGE-2 (IL-1 induction of PGE-2; Example 1, 250 μM or 500 μM, IL-1 500 picograms/ml, 24 hours) | IL-1 induction of PGE-2 blocked (IL-1 induction of PGE-2; 10 μM) | IL-1 induction of PGE-2 blocked (IL-1 induction of PGE-2; 50 μM) | IL-1 induction of PGE-2 blocked (IL-1 induction of PGE-2; 100 μM) | inhibition at 100 µM (IL-1 induction of PGE-2; [3]) | flux rate of 4-EB through human skin [1] | inhibition at 50 µM [2] | inhibition at 100 µM [2] | inhibition at 50 µM (IL-1 induction of PGE-2; [4]) | inhibition at 10 µM ([2]; 10 μM) | inhibition of the IL-1 induced production of PGE-2 (in words) (IL-1 induction of PGE-2; Example 3, 10 or 50 μM) | inhibition at 10 µM (IL-1 induction of PGE-2; Homo sapiens, Skin fibroblast, Example 3 (FIG. 4B), 10 μM, IL-1 500 picograms/ml, 24 hours, read-out: Percent inhibition of IL-1 induced PGE-2)
CCOc1ccc(C=O)cc1 [4-EB, 4-ethoxybenzaldehyde] | complete inhibition | 35% | 82% | completely blocked | 81.5% | 30-50 micrograms/hour | 79.9% | 94.9% | – | – | – | –
CCOc1ccccc1C=O [2-EB, 2-ethoxybenzaldehyde] | – | – | – | – | 82.9% | – | 76.6% | 83% | 58.9% | 55.2% | – | –
CCOc1cccc(C=O)c1 [3-EB, 3-ethoxybenzaldehyde] | – | – | – | – | 41.2% | – | 57.7% | 76.7% | 42.6% | – | – | –
COc1ccc(C=O)cc1 [4-MB, 4-methoxybenzaldehyde] | – | – | – | – | – | – | – | – | 13.6% | – | did not appear to inhibit | 16.2%

Reference: patent publication US10702515B2, “Compositions containing aromatic aldehydes and their use in treatments” (Allergan, Inc., priority 2001, dated 2020)
